The compounds below were run against T1, human GLP-1R (Homo sapiens, UniProt P43220) (assay: GLP-1R cAMP assay (Example B1a, HTRF, 30 min at room temperature)). Conditions: cAMP accumulation in HEK293 expressing human GLP-1R, no BETP, 30 min room temperature (Method B1a, compounds ID 1-609), Table 1; read-out: EC50.
T1 construct: host or cells: HEK293
Assay type: cell-based
Summary of the method: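 Competitive HTRF read-out of cAMP after 30 min room-temperature stimulation, BETP absent, of human GLP-1R-HEK293 cells (1,000/well) in HEPES buffer with 500 μM IBMX and 0.1% BSA. Activation normalised to GLP-1(7-37) positive control. EC50 from 4-parameter non-linear regression.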

T1 sequence (P43220 24-463): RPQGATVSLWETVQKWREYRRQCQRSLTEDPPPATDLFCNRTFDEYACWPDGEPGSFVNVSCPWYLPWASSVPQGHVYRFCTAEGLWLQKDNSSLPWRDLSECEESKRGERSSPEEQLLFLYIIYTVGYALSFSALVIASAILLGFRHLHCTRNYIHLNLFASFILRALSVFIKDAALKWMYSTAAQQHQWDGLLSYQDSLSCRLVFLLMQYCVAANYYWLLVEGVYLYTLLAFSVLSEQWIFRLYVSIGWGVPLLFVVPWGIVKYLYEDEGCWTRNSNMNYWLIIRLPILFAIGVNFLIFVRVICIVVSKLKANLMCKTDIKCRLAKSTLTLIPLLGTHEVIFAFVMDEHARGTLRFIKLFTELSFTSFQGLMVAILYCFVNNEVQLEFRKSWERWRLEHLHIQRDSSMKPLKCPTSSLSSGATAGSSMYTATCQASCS

Row | SMILES | EC50
1 | CCc1nccc(-c2ccc3c(c2)cc(C(=O)N2[C@@H]4CC[C@H]2c2c(nn(-c5cc(C)c(F)c(C)c5)c2-n2ccn(-c5ccc6c(cnn6C)c5F)c2=O)C4)n3[C@@]2(c3noc(=O)[nH]3)C[C@@H]2C)c1C [Compound 219, 3-[(1S,2S)-1-[5-(2-ethyl-3-methyl-4-pyridyl)-2-[(1S,8R)-4-(4-fluoro-3,5-dimethyl-phenyl)-3-[3-(4-fluoro-1-methyl-indazol-5-yl)-2-oxo-imidazol-1-yl]-4,5,11-triazatricyclo[6.2.1.02,6]undeca-2,5-diene-11-carbonyl]indol-1-yl]-2-methyl-cyclopropyl]-4H-1,2,4-oxadiazol-5-one] | 269 nM
2 | Cc1cc(-n2nc3c(c2-n2ccn(-c4ccn5c(cc(=O)n5C)c4F)c2=O)[C@@H]2CC[C@H](C3)N2C(=O)c2cc3cc([C@H]4CCOC(C)(C)C4)ccc3n2[C@@]2(c3noc(=O)[nH]3)C[C@@H]2C)cc(C)c1F [Compound 429, 3-((1S,2S)-1-(5-((S)-2,2-dimethyltetrahydro-2H-pyran-4-yl)-2-((4S,7R)-3-(3-(4-fluoro-1-methyl-2-oxo-1,2-dihydropyrazolo[1,5-a]pyridin-5-yl)-2-oxo-2,3-dihydro-1H-imidazol-1-yl)-2-(4-fluoro-3,5-dimethylphenyl)-2,4,5,6,7,8-hexahydro-4,7-epiminocyclohepta [c]pyrazole-9-carbonyl)-1H-indol-1-yl)-2-methylcyclopropyl)-1,2,4-oxadiazol-5(4H)-one] | 12.2 nM
3 | Cc1cc(-n2nc3c(c2-n2ccn(-c4ccc5c(cnn5C)c4F)c2=O)[C@@H]2CC[C@H](C3)N2C(=O)c2cc3cc(C4CCOC5(CC5)C4)ccc3n2[C@@]2(c3noc(=O)[nH]3)C[C@@H]2C)cc(C)c1F (stereo partly drawn) [Compound 213, 3-((1S,2S)-1-(2-((4S,7R)-3-(3-(4-fluoro-1-methyl-1H-indazol-5-yl)-2-oxo-2,3-dihydro-1H-imidazol-1-yl)-2-(4-fluoro-3,5-dimethylphenyl)-2,4,5,6,7,8-hexahydro-4,7-epiminocyclohepta [c]pyrazole-9-carbonyl)-5-(4-oxaspiro[2.5]octan-7-yl)-1H-indol-1-yl)-2-methylcyclopropyl)-1,2,4-oxadiazol-5 (4H)-one] | 81.2 nM
4 | Cc1cc(-n2nc3c(c2-n2ccn(-c4ccc5c(cnn5C)c4F)c2=O)[C@@H]2CC[C@H](C3)N2C(=O)c2cc3nc(C4CCOC(C)(C)C4)sc3cc2C2(c3noc(=O)[nH]3)CC2)cc(C)c1F (stereo partly drawn) [Compound 129, 3-[1-[2-(2,2-dimethyltetrahydropyran-4-yl)-5-[(1S,8R)-4-(4-fluoro-3,5-dimethyl-phenyl)-3-[3-(4-fluoro-1-methyl-indazol-5-yl)-2-oxo-imidazol-1-yl]-4,5,11-triazatricyclo[6.2.1.02,6]undeca-2,5-diene-11-carbonyl]-1,3-benzothiazol-6-yl]cyclopropyl]-4H-1,2,4-oxadiazol-5-one] | > 10000 nM
5 | Cc1cc(-n2nc3c(c2-n2ccn(-c4ccc5c(cnn5C)c4F)c2=O)[C@H](C)N(C(=O)c2cc4cc([C@H]5CCOC6(CC6)C5)ccc4n2[C@@]2(c4noc(=O)[nH]4)C[C@@H]2C)CCC3)cc(C)c1F [Compound 606, 3-((1S,2S)-1-(2-((S)-3-(3-(4-fluoro-1-methyl-1H-indazol-5-yl)-2-oxo-2,3-dihydro-1H-imidazol-1-yl)-2-(4-fluoro-3,5-dimethylphenyl)-4-methyl-2,4,5,6,7,8-hexahydropyrazolo[4,3-c]azepine-5-carbonyl)-5-((S)-4-oxaspiro[2.5]octan-7-yl)-1H-indol-1-yl)-2-methylcyclopropyl)-1,2,4-oxadiazol-5 (4H)-one] | 80.4 nM
6 | Cc1cc(-n2nc3c(c2-n2ccn(-c4ccc5c(cnn5C)c4F)c2=O)[C@@H]2CC[C@H](C3)N2C(=O)c2cc3cc(C4CCOC5(COC5)C4)ccc3n2C2(c3noc(=O)[nH]3)CC2)cc(C)c1F (stereo partly drawn) [Compound 136, 3-[1-[5-(2,5-dioxaspiro[3.5]nonan-8-yl)-2-[(1S,8R)-4-(4-fluoro-3,5-dimethyl-phenyl)-3-[3-(4-fluoro-1-methyl-indazol-5-yl)-2-oxo-imidazol-1-yl]-4,5,11-triazatricyclo[6.2.1.02,6]undeca-2,5-diene-11-carbonyl]indol-1-yl]cyclopropyl]-4H-1,2,4-oxadiazol-5-one] | > 10000 nM
7 | Cc1cc(-n2nc3c(c2-n2ccn(-c4ccc5c(cnn5C)c4F)c2=O)[C@@H]2CC[C@H](C3)N2C(=O)c2cc3cc(C4CCOC5(CCC5)C4)ccc3n2[C@@]2(c3noc(=O)[nH]3)C[C@@H]2C)cc(C)c1F (stereo partly drawn) [Compound 415, 3-((1S,2S)-1-(2-((4S,7R)-3-(3-(4-fluoro-1-methyl-1H-indazol-5-yl)-2-oxo-2,3-dihydro-1H-imidazol-1-yl)-2-(4-fluoro-3,5-dimethylphenyl)-2,4,5,6,7,8-hexahydro-4,7-epiminocyclohepta [c]pyrazole-9-carbonyl)-5-(5-oxaspiro[3.5]nonan-8-yl)-1H-indol-1-yl)-2-methylcyclopropyl)-1,2,4-oxadiazol-5 (4H)-one] | 361 nM
8 | Cc1cc(-n2nc3c(c2-n2ccn(-c4ccc5c(cnn5C)c4F)c2=O)[C@@H]2COC[C@H](C3)N2C(=O)c2cc3cc(C4CCOCC4)ccc3n2[C@@]2(c3noc(=O)[nH]3)C[C@@H]2C)cc(C)c1F [Compound 221, 3-((1S,2S)-1-(2-((4R,8S)-3-(3-(4-fluoro-1-methyl-1H-indazol-5-yl)-2-oxo-2,3-dihydro-1H-imidazol-1-yl)-2-(4-fluoro-3,5-dimethylphenyl)-2,4,5,7,8,9-hexahydro-4,8-epiminooxocino [5,4-c]pyrazole-10-carbonyl)-5-(tetrahydro-2H-pyran-4-yl)-1H-indol-1-yl)-2-methylcyclopropyl)-1,2,4-oxadiazol-5 (4H)-one] | 129 nM
9 | Cc1cc(-n2nc3c(c2-n2ccn(-c4ccc5c(cnn5C)c4F)c2=O)[C@@H]2CC[C@H](C3)N2S(=O)(=O)c2cc3cc([C@H]4CCOC(C)(C)C4)ccc3n2[C@@]2(c3noc(=O)[nH]3)C[C@@H]2C)cc(C)c1F [Compound 525, 3-[(1S,2S)-1-[5-[(4S)-2,2-dimethyltetrahydropyran-4-yl]-2-[[(1S,8R)-4-(4-fluoro-3,5-dimethyl-phenyl)-3-[3-(4-fluoro-1-methyl-indazol-5-yl)-2-oxo-imidazol-1-yl]-4,5,11-triazatricyclo[6.2.1.02,6]undeca-2,5-dien-11-yl]sulfonyl]indol-1-yl]-2-methyl-cyclopropyl]-4H-1,2,4-oxadiazol-5-one] | 58.4 nM
10 | Cc1cc(-n2nc3c(c2N2CCN(c4ccc5c(cnn5C)c4F)C(=O)C2=O)[C@H](C)N(C(=O)c2cc4cc([C@H]5CCOC(C)(C)C5)ccc4n2[C@@]2(c4noc(=O)[nH]4)C[C@@H]2C)CC3)cc(C)c1F [Compound 28, 1-((S)-5-(5-((S)-2,2-dimethyltetrahydro-2H-pyran-4-yl)-1-((1S,2S)-2-methyl-1-(5-oxo-4,5-dihydro-1,2,4-oxadiazol-3-yl)cyclopropyl)-1H-indole-2-carbonyl)-2-(4-fluoro-3,5-dimethylphenyl)-4-methyl-4,5,6,7-tetrahydro-2H-pyrazolo[4,3-c]pyridin-3-yl)-4-(4-fluoro-1-methyl-1H-indazol-5-yl) piperazine-2,3-dione] | > 10000 nM
11 | Cc1cc(-n2nc3c(c2-n2ccn(-c4ccc5c(cnn5C)c4F)c2=O)[C@@H]2CC[C@H](C3)N2C(=O)c2cc3cc([C@H]4COC(C)(C)C4)ccc3n2[C@@]2(c3noc(=O)[nH]3)C[C@@H]2C)cc(C)c1F [Compound 423, 3-[(1S,2S)-1-[5-[(3S)-5,5-dimethyltetrahydrofuran-3-yl]-2-[(1S,8R)-4-(4-fluoro-3,5-dimethyl-phenyl)-3-[3-(4-fluoro-1-methyl-indazol-5-yl)-2-oxo-imidazol-1-yl]-4,5,11-triazatricyclo[6.2.1.02,6]undeca-2,5-diene-11-carbonyl]indol-1-yl]-2-methyl-cyclopropyl]-4H-1,2,4-oxadiazol-5-one] | 2120 nM
12 | Cc1cc(-n2nc3c(c2-n2ccn(-c4ccc5c(cnn5C)c4F)c2=O)[C@@H]2CC[C@H](C3)N2C(=O)c2cc3cc([C@H]4CCOC5(CCC5)C4)ccc3n2[C@@]2(c3noc(=O)[nH]3)C[C@@H]2C)cc(C)c1F [Compound 426, 3-((1S,2S)-1-(2-((4S,7R)-3-(3-(4-fluoro-1-methyl-1H-indazol-5-yl)-2-oxo-2,3-dihydro-1H-imidazol-1-yl)-2-(4-fluoro-3,5-dimethylphenyl)-2,4,5,6,7,8-hexahydro-4,7-epiminocyclohepta [c]pyrazole-9-carbonyl)-5-((S)-5-oxaspiro[3.5]nonan-8-yl)-1H-indol-1-yl)-2-methylcyclopropyl)-1,2,4-oxadiazol-5(4H)-one] | 134 nM
13 | Cc1cc(-n2nc3c(c2-n2ccn(-c4ccc5c(cnn5C)c4F)c2=O)[C@@H]2CC[C@H](C3)N2C(=O)c2cc3cc([C@@H]4CCOC5(CC5)C4)ccc3n2[C@]2(c3noc(=O)[nH]3)C[C@@H]2C)cc(C)c1F [Compound 529, 3-[(1R,2S)-1-[2-[(1S,8R)-4-(4-fluoro-3,5-dimethyl-phenyl)-3-[3-(4-fluoro-1-methyl-indazol-5-yl)-2-oxo-imidazol-1-yl]-4,5,11-triazatricyclo[6.2.1.02,6]undeca-2,5-diene-11-carbonyl]-5-[(7R)-4-oxaspiro[2.5]octan-7-yl]indol-1-yl]-2-methyl-cyclopropyl]-4H-1,2,4-oxadiazol-5-one] | ≥ 10000 nM
14 | Cc1cc(-n2nc3c(c2-n2ccn(-c4ccc5c(cnn5C)c4F)c2=O)[C@@H]2CC[C@H](C3)N2C(=O)c2cc3cc([C@H]4CCOC(C)(C)C4)ccc3n2C(=O)c2noc(=O)[nH]2)cc(C)c1F [Compound 122, 3-[5-[(4S)-2,2-dimethyltetrahydropyran-4-yl]-2-[(1S,8R)-4-(4-fluoro-3,5-dimethyl-phenyl)-3-[3-(4-fluoro-1-methyl-indazol-5-yl)-2-oxo-imidazol-1-yl]-4,5,11-triazatricyclo[6.2.1.02,6]undeca-2,5-diene-11-carbonyl]indole-1-carbonyl]-4H-1,2,4-oxadiazol-5-one] | > 10000 nM

Reference: US12617783B2, “Heterocyclic GLP-1R agonists” (BIOMEA FUSION, INC., priority 2024, dated 2026)
